For ten compounds, T/C results are on record in PubChem BioAssay AID328 (DTP/NCI, 2004).

Where “and” joins values, the source holds several entries; their conditions need not be identical. Equal entries are not always repeated. Inconclusive results and toxic doses are left out.

For this assay, the system named is BDF1 mice, P388 leukemia ip, median survival T/C. The assay is described as follows: NCI In Vivo Anticancer Drug Screen. Data for tumor model P388 Leukemia (intraperitoneal) in B6D2F1 (BDF1) mice. As to conditions: endpoint: median survival time, higher = longer survival. Summed up:
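Transplantable tumour in mice; compound vs vehicle dosing; survival scored; ratio of treated to control reported.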

Setting [1] is: dose: 100.0 mg/kg/injection, schedule: Q01DX009 (ip), vehicle: Klucel (hydroxypropylcellulose) (HPC).
Setting [2] is: dose: 25.0 mg/kg/injection, schedule: Q04DX003 (ip), vehicle: saline with Tween-80.
Setting [3] is: dose: 100.0 mg/kg/injection, schedule: Q04DX003 (ip), vehicle: saline with Tween-80.
Where [4] appears, read: dose: 200.0 mg/kg/injection, schedule: Q04DX003 (ip), vehicle: saline with Tween-80.
Setting [5] is: dose: 400.0 mg/kg/injection, schedule: Q04DX003 (ip), vehicle: saline with Tween-80.
The mark [6] stands for this setting: dose: 100.0 mg/kg/injection, schedule: Q04DX003 (ip), vehicle: Klucel (hydroxypropylcellulose) (HPC).
[7] abbreviates: dose: 200.0 mg/kg/injection, schedule: Q04DX003 (ip), vehicle: Klucel (hydroxypropylcellulose) (HPC).

Consider `Cc1cc2c3ccccc3ncn2n1`, for which the T/C was 100 % of control (dose: 100.0 mg/kg/injection, schedule: Q01DX001 (ip), vehicle: saline); 100 % of control under setting [1]; 100 % of control (dose: 100.0 mg/kg/injection, schedule: Q04DX003 (ip), vehicle: saline); 108 % of control (dose: 200.0 mg/kg/injection, schedule: Q01DX001 (ip), vehicle: saline); 108 % of control (dose: 200.0 mg/kg/injection, schedule: Q01DX009 (ip), vehicle: Klucel (hydroxypropylcellulose) (HPC)); 100 % of control (dose: 200.0 mg/kg/injection, schedule: Q04DX003 (ip), vehicle: saline). Where the note is “dose: 400.0 mg/kg/injection, schedule: Q04DX003 (ip), vehicle: saline”, the T/C was 100 % of control.

As for `CN(N=O)C(N)=O`, the T/C reads like this: under setting [2], 150 % of control; (dose: 37.5 mg/kg/injection, schedule: Q04DX003 (ip), vehicle: saline with Tween-80) 154 % of control.

For `Nc1nc(=O)[nH]c(N)c1N=O`, the T/C by setting is: under setting [2], 98 % of control; (dose: 50.0 mg/kg/injection, schedule: Q04DX003 (ip), vehicle: saline with Tween-80) 107 % of control; under setting [3], 100 % of control; under setting [4], 100 % of control; under setting [5], 102 % of control.

Consider `COc1cc(C=Nc2cc(Br)c(O)c(Br)c2)ccc1N(CCCl)CCCl`, for which the T/C runs as follows: (dose: 3.5 mg/kg/injection, schedule: Q04DX003 (ip), vehicle: Klucel (hydroxypropylcellulose) (HPC)) 163 % of control; (dose: 5.44 mg/kg/injection, schedule: Q04DX003 (ip), vehicle: Klucel (hydroxypropylcellulose) (HPC)) 150 % of control; (dose: 6.2 mg/kg/injection, schedule: Q01DX009 (ip), vehicle: Klucel (hydroxypropylcellulose) (HPC)) 186 % of control; (dose: 8.16 mg/kg/injection, schedule: Q04DX003 (ip), vehicle: Klucel (hydroxypropylcellulose) (HPC)) 172 % of control; (dose: 9.37 mg/kg/injection, schedule: Q01DX009 (ip), vehicle: Klucel (hydroxypropylcellulose) (HPC)) 227 % of control and 259 % of control; (dose: 12.37 mg/kg/injection, schedule: Q04DX003 (ip), vehicle: Klucel (hydroxypropylcellulose) (HPC)) 272 % of control and 220 % of control. Also, the T/C by setting is: (dose: 14.0 mg/kg/injection, schedule: Q01DX009 (ip), vehicle: Klucel (hydroxypropylcellulose) (HPC)) 91 % of control; (dose: 18.75 mg/kg/injection, schedule: Q04DX003 (ip), vehicle: Klucel (hydroxypropylcellulose) (HPC)) 265 % of control and 268 % of control and 272 % of control; (dose: 28.12 mg/kg/injection, schedule: Q04DX003 (ip), vehicle: Klucel (hydroxypropylcellulose) (HPC)) 300 % of control; (dose: 37.5 mg/kg/injection, schedule: Q01DX009 (ip), vehicle: Klucel (hydroxypropylcellulose) (HPC)) 90 % of control; (dose: 37.5 mg/kg/injection, schedule: Q04DX003 (ip), vehicle: Klucel (hydroxypropylcellulose) (HPC)) 113 % of control.

In the case of `CCCCCCC(=O)NC1=C(N2CC2)C(=O)C(NC(=O)CCCCCC)=C(N2CC2)C1=O`, the T/C by setting is: (dose: 25.0 mg/kg/injection, schedule: Q01DX009 (ip), vehicle: Klucel (hydroxypropylcellulose) (HPC)) 182 % of control; (dose: 25.0 mg/kg/injection, schedule: Q01DX009 (ip), vehicle: saline) 234 % of control; (dose: 50.0 mg/kg/injection, schedule: Q01DX009 (ip), vehicle: Klucel (hydroxypropylcellulose) (HPC)) 208 % of control; (dose: 50.0 mg/kg/injection, schedule: Q01DX009 (ip), vehicle: saline) 241 % of control; (dose: 66.0 mg/kg/injection, schedule: Q04DX003 (ip), vehicle: saline with Tween-80) 166 % of control; under setting [1], 154 % of control. The T/C was 328 % of control (dose: 100.0 mg/kg/injection, schedule: Q01DX009 (ip), vehicle: saline); 191 % of control and 200 % of control under setting [3]; 200 % of control (dose: 150.0 mg/kg/injection, schedule: Q04DX003 (ip), vehicle: saline with Tween-80); 107 % of control (dose: 200.0 mg/kg/injection, schedule: Q01DX009 (ip), vehicle: saline); 154 % of control under setting [4]; 95 % of control under setting [5].

For `COC(=O)c1cc(=O)n(-c2cccc(F)c2)c(SC)n1`, the T/C was 114 % of control under setting [6] and 114 % of control under setting [7].

Turning to `COC(=O)C(CC(C)C)NC(=O)C(Cc1ccc(Oc2ccc([N+](=O)[O-])cc2[N+](=O)[O-])cc1)NC=O` (stereo not given), the T/C is 95 % of control (dose: 25.0 mg/kg/injection, schedule: Q04DX003 (ip), vehicle: water); 99 % of control (dose: 300.0 mg/kg/injection, schedule: Q04DX003 (ip), vehicle: water); 96 % of control and 98 % of control and 112 % of control (dose: 400.0 mg/kg/injection, schedule: Q04DX003 (ip), vehicle: water).

Regarding `C1=C(c2ccccc2)OC(c2ccccc2)C1c1ccccc1` (stereo not given), the T/C runs as follows: (dose: 25.0 mg/kg/injection, schedule: Q01DX005 (ip), vehicle: saline with Tween-80) 94 % of control; (dose: 50.0 mg/kg/injection, schedule: Q01DX005 (ip), vehicle: saline with Tween-80) 94 % of control.

Take `O=S(=O)(Nc1c(Cl)c(Cl)c(Cl)c(Cl)c1NS(=O)(=O)c1ccccc1)c1ccccc1`: the T/C under setting [6] was 100 % of control; the T/C under setting [7] was 105 % of control; the T/C (dose: 400.0 mg/kg/injection, schedule: Q04DX003 (ip), vehicle: Klucel (hydroxypropylcellulose) (HPC)) was 100 % of control.

As for `CN(C)N=Nc1ccccc1`, the T/C is 103 % of control (dose: 31.25 mg/kg/injection, schedule: Q01DX009 (ip), vehicle: Klucel (hydroxypropylcellulose) (HPC)); 110 % of control (dose: 82.0 mg/kg/injection, schedule: Q04DX003 (ip), vehicle: Klucel (hydroxypropylcellulose) (HPC)); 90 % of control (dose: 125.0 mg/kg/injection, schedule: Q04DX003 (ip), vehicle: saline).
